The record followed here is US6242216A, “Nucleic acids encoding a functional human purinoreceptor P2X2 and P2X4, and methods of production and use thereof” (Abbott Laboratories, priority 1998, dated 2001).

By EC50 is commonly meant the concentration that produces a half-maximal response.

The test system of one test is hP2X2c. Put plainly: Two-electrode voltage-clamp of Xenopus oocytes injected with hP2X2c RNA. The note with it: 30 μM ATP, transient external application. Type of test: cell-based, human. On the procedure: (§1) To assess function of the human P2X2 receptors, RNA was synthesized from the clones using the T7 bacterial promoter present on the pCRscript vector and reagents from Ambion (Message Machine; Ambion, Inc., Austin Tex.).
(§2) Adult female frogs (Xenopus laevis) were anesthetized with 0.2% tricaine before surgery. During surgery, sections of one ovary were removed and oocytes were denuded of overlying follicle cells by agitation for 1-2 hours in 2 mg/ml collagenase (Sigma type IA) in low-Ca^2+ Barth's solution containing (in mM): 88 NaCl, 2.5 KCl, 1.0 MgCl2 10 Na-HEPES (pH 7.4) plus 100 μg/ml gentamicin. Selection of stage V and VI oocytes was begun after approximately 50% of the cells were denuded. Cytoplasmic injections of 50 ng hP2X2a-d RNA were performed on denuded oocytes using a glass microelectrode. Only one receptor subtype RNA was injected per cell. […]
(§3) Transmembrane currents were recorded using two-electrode voltage-clamp techniques with an Axoclamp-2 A amplifier, and were collected and analyzed using pCLAMP software (Axon Instruments). […] Responses to ATP and α,βme-ATP were routinely recorded at room temperature while the oocyte membrane was voltage-clamped at -60 mV. […]

In another test the target is T1, hP2X2a receptors (Homo sapiens, UniProt Q9UBL9).
T1 construct: expressed in transfected cells; host or cells: Xenopus laevis oocytes, cytoplasmic injection of 50 ng in vitro transcribed RNA, one subtype per cell
T1 sequence (Q9UBL9 1-471): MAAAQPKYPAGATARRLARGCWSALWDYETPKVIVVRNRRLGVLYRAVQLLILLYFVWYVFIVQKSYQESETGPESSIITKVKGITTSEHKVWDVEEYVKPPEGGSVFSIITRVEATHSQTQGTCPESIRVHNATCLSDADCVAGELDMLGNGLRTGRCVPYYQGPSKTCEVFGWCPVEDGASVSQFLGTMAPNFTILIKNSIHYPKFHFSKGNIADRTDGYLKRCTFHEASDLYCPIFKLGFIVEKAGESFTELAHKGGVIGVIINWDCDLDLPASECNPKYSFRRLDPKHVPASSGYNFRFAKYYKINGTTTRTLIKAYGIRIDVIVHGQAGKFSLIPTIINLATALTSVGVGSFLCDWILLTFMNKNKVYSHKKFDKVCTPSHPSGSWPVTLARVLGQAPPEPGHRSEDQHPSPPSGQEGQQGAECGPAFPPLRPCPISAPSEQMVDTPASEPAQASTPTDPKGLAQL
In words: Two-electrode voltage-clamp of Xenopus oocytes expressing hP2X2a receptors. It is filed as cell-based. As to the method: as §1
(§4) Adult female frogs (Xenopus laevis) were anesthetized with 0.2% tricaine before surgery. During surgery, sections of one ovary were removed and oocytes were denuded of overlying follicle cells by agitation for 1-2 hours in 2 mg/ml collagenase (Sigma type IA) in low-Ca^2+ Barth's solution containing (in mM): 88 NaCl, 2.5 KCl, 1.0 MgCl2 10 Na-HEPES (pH 7.4) plus 100 μg/ml gentamicin. Selection of stage V and VI oocytes was begun after approximately 50% of the cells were denuded. Cytoplasmic injections of 50 ng hP2X2a-d RNA were performed on denuded oocytes using a glass microelectrode. Only one receptor subtype RNA was injected per cell. Oocytes were used for recording 1-2 days after injection and were maintained at 16-19° C. in normal Barth's solution (incubation medium in mM): 90 NaCl, 1.0 KCl, 0.66 NaNO3, 0.74 CaCl2, 0.82 MgCl2, 2.4 NaHCO3, 2.5 Na-pyruvate, 10 Na-HEPES (pH 7.4) plus 100 μg/ml gentamicin.
(§5) The standard recording solution contained (in mM): 96 NaCl, 2.0 KCl, 1.8 BaCl2, 1.0 MgCl2, 5.0 Na-pyruvate, and 5.0 Na-HEPES (pH 7.4). BaCl2 was replaced with CaCl2 (1 mM) in some experiments without significant effects on the pharmacological properties of the receptors. All oocyte solutions were diluted in distilled H2 O from 10×stock solutions. Concentrated stocks of agonists and antagonists were made in distilled H2 O and then serially diluted in recording solution to desired final concentrations. All chemicals and agonists (ATP and α,βme-ATP) were obtained from Sigma Chemical Company.
(§6) Transmembrane currents were recorded using two-electrode voltage-clamp techniques with an Axoclamp-2 A amplifier, and were collected and analyzed using pCLAMP software (Axon Instruments). Electrodes (1.5-2.0 M'.OMEGA.) were filled with 120 mM KCl. Responses to ATP and α,βme-ATP were routinely recorded at room temperature while the oocyte membrane was voltage-clamped at -60 mV. […]
(Two-electrode voltage clamp is typically applied to oocytes expressing channels or transporters.)

A further test concerns hP2X2d. In words: Two-electrode voltage-clamp of Xenopus oocytes injected with hP2X2d RNA. Type of test: cell-based, human. The following applies: 30 μM ATP, transient external application. On the procedure:
as §1, §2, §3

The target of the next test is T2, human P2X4 receptor (Homo sapiens, UniProt Q99571).
T2 construct: expressed in transfected cells; host or cells: Xenopus laevis oocytes, nuclear injection of P2X4-pCDNA3.1 DNA (10 ng) or cytoplasmic injection of RNA (50 ng)
T2 sequence (Q99571 1-388): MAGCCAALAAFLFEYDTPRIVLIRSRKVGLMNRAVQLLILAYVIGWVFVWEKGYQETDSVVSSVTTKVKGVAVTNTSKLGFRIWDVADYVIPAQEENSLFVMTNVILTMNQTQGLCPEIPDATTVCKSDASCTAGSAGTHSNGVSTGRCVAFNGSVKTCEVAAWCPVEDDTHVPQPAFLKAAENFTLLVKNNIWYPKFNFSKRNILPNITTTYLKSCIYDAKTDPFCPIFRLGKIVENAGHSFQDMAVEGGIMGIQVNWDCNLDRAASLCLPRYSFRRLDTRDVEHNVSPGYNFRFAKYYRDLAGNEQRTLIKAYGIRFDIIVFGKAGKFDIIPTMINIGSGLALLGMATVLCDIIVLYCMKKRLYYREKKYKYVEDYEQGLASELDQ
In words: Two-electrode voltage-clamp of Xenopus oocytes expressing recombinant human P2X4 receptors. It is filed as cell-based. On the procedure: Responses were measured at a holding potential of -60 mV in modified Barth's solution containing 10 mM BaCl2 and lacking CaCl2 and MgCl2. However, in some experiments, the cell potential was intentionally varied in order to determine the response current-voltage relationship. Agonist was applied briefly using a computer-controlled solenoid valve and a push/pull applicator positioned to within 200-400 μm from the oocyte. Responses were recorded by computer in synchrony with agonist application. Antagonists were included with agonist in the push/pull applicator and were applied to the bath by superfusion for at least 3 minutes before application of agonist. Responses were quantified by measuring the peak amplitude.
The clone was grown up and prepared in large scale using the QlAgen maxiprep DNA preparation system according to the manufacturer's instructions. The DNA was ethanol precipitated and resuspended in TE buffer. For RNA production, the P2X4 -pCNDA3.1 cvonstruct was linearized by digestion with the restriction enzyme Notl and P2X4 messenger RNA was produced using the T7 promoter in this vector and the Ambion mMessage mMachine in vitro transcription kit according to the manufacturer's instructions.
For functional analysis of human P2X4 receptors, 10 ng of human P2X4 receptor DNA prepared as described above was injected into the nucleus of Xenopus oocytes. Alternatively, 50 ng of human P2X4 receptor RNA prepared as described above was injected into the ooxyte cytoplasm. Oocytes were incubated in normal Barth's solution containing 100 μg/ml gentamicin for 2-7 days following injection. The response to 10 μM ATP was then recorded.

The target in a further test is T3, hP2X2b receptors (Homo sapiens, UniProt Q9UBL9).
T3 construct: expressed in transfected cells; host or cells: Xenopus laevis oocytes, cytoplasmic injection of 50 ng in vitro transcribed RNA, one subtype per cell
T3 sequence (Q9UBL9 1-404 isoform Q9UBL9-2): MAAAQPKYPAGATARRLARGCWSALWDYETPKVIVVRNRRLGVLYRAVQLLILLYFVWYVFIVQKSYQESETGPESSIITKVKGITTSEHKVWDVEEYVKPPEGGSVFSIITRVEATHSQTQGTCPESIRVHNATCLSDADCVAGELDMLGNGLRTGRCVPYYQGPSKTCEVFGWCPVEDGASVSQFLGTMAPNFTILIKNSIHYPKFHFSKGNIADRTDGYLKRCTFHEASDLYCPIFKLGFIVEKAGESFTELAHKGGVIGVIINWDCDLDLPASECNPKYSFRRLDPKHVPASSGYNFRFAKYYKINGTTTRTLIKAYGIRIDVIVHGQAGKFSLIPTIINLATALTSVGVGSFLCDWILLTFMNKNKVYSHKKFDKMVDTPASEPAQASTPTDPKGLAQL
In words: Two-electrode voltage-clamp of Xenopus oocytes expressing hP2X2b receptors. Type of test: cell-based. On the procedure: as §1, §4, §5, §6

Values joined by “and” are separate entries in the source; they are usually repeats but may differ in a detail not shown here. Equal entries are not always repeated. Where two headings read alike, the source gives them in different places.

In the case of `Nc1ncnc2c1ncn2[C@@H]1O[C@H](COP(=O)(O)OP(=O)(O)OP(=O)(O)O)[C@@H](O)[C@H]1O` [ATP], the “agonist effect on receptor current” value in the test on hP2X2c and in the test on hP2X2d was “had no effect” each time. Besides, the “Hill coefficient (nH)” value on hP2X2a receptors (oocytes expressing hP2X2a, four cells) was 1.5; on hP2X2b receptors (oocytes expressing hP2X2b, three cells), 1.5. The EC50 was 16 µM on hP2X2a receptors (oocytes expressing hP2X2a, four cells, -60 mV, read-out: mean ATP EC50 (peak inward current)); ~2 µM and 1 to 2 µM at human P2X4 receptor (DNA-injected oocytes, concentration-response 0.1-1000 μM ATP); 1 to 2 µM at human P2X4 receptor (RNA-injected oocytes, read-out: ATP EC50); 20 µM at hP2X2b receptors (oocytes expressing hP2X2b, three cells, -60 mV, read-out: mean ATP EC50 (peak inward current)). For the same compound, the “mixed-conductance cation current on extracellular application of ATP” value on human P2X4 receptor (oocytes injected with human P2X4 receptor DNA) is 100-1000 nA.

For `Cc1ccc(C(=O)Nc2ccc(S(=O)(=O)O)c3cc(S(=O)(=O)O)cc(S(=O)(=O)O)c23)cc1NC(=O)c1cccc(NC(=O)Nc2cccc(C(=O)Nc3cc(C(=O)Nc4ccc(S(=O)(=O)O)c5cc(S(=O)(=O)O)cc(S(=O)(=O)O)c45)ccc3C)c2)c1` [suramin], the “antagonism of ATP-induced currents” value on human P2X4 receptor (DNA-injected oocytes, suramin 10 μM, ATP 10 μM) was “failed to depress”. For the same compound, the “antagonism of ATP responses” value on human P2X4 receptor (RNA-injected oocytes, suramin 1 μM, ATP 3 μM) is “failed to depress”; on human P2X4 receptor (RNA-injected oocytes, suramin 10 μM, ATP 3 μM), “failed to depress”. Moreover, at human P2X4 receptor (RNA-injected oocytes, suramin 100 μM, ATP 3 μM, read-out: ATP response remaining, % of control), the remaining activity at 100 µM is roughly 80%.

As for `Nc1ncnc2c1ncn2[C@@H]1O[C@H](COP(=O)(O)CP(=O)(O)OP(=O)(O)O)[C@@H](O)[C@H]1O` [αβMe-ATP, α,β-methylene-ATP], the “agonist effect on receptor current” value on hP2X2a receptors (100 μM agonist, hP2X2a) is “had no effect”; on hP2X2b receptors (100 μM agonist, hP2X2b) it was “had no effect”. Also, the Emax on human P2X4 receptor (RNA-injected oocytes, read-out: maximal current relative to maximal ATP current) is 20 to 25%.
